The results in this text go back to US12552767B2, “3-heteroaryl pyrrolidine and piperidine orexin receptor agonists” (Merck Sharp & Dohme LLC, priority 2020, dated 2026).

The assay has as its target T1, human OX2R (Homo sapiens, UniProt O43614).
T1 construct: expressed in transfected cells; host or cells: CHO (Chinese hamster ovary) cells, grown under G418 selection
T1 sequence (O43614 1-444): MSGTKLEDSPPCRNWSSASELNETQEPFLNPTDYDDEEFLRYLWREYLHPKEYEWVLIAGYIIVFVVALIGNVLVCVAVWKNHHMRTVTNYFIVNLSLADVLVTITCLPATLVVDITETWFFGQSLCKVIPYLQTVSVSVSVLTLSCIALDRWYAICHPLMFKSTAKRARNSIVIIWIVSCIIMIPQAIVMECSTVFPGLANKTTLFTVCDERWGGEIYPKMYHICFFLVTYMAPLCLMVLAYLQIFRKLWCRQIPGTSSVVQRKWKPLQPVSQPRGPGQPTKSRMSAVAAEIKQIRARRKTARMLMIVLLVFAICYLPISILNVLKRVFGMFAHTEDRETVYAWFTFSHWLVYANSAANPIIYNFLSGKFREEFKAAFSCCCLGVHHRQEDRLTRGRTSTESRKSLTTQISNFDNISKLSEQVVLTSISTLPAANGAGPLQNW
As to the kind of experiment: IP-One (IPOne) orexin receptor agonist assay in CHO cells expressing human OX2R. In kind it is cell-based. As to conditions: for EC50: CHO cells expressing human OX2R, IP-One IP-1 detection, 2 hours incubation, four parameter logistic fit, read-out: OX2R Potency, EC50; for % of reference agonist maximal effect: human OX2R, percentage of sample raw value/mean max effect (reference compound at 1 uM with 100% activity). In outline:
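CHO cells stably expressing human OX2R were stimulated with compound (10-point ½-log dilutions) for 2 h at 37 °C. IP-1 accumulation was read by HTRF (IP-One, 665/620 nm). EC50 from a four-parameter fit; % effect relative to 1 μM reference agonist control.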

With `C#CCOC(=O)N1CCC[C@H](c2cc[nH]n2)[C@@H]1CO[C@H]1CC[C@@H](C(C)C)CC1` (relative stereo) [Example 95, prop-2-yn-1-yl (CIS)-2-((((CIS)-4-isopropylcyclohexyl)oxy)methyl)-3-(1H-pyrazol-3-yl)piperidine-1-carboxylate], the half-maximal effective concentration (EC50) was found to be 8.77 µM and the “% of reference agonist maximal effect” value amounted to 79.7%.
The corresponding values for `O=C(OCC(F)F)N1CCC[C@H](c2cc[nH]n2)[C@@H]1CO[C@H]1CC[C@@H](c2ccccc2)CC1` (relative stereo) [Example 96, 2,2-difluoroethyl (CIS)-2-((((CIS)-4-phenylcyclohexyl)oxy)methyl)-3-(1H-pyrazol-3-yl)piperidine-1-carboxylate] are 0.754 µM and 91.3%.
On to `CC(=O)COC(=O)N1CCC[C@H](c2cc[nH]n2)[C@@H]1CO[C@H]1CC[C@@H](c2ccccc2)CC1` (relative stereo) [Example 97, 2-oxopropyl (CIS)-2-((((CIS)-4-phenylcyclohexyl)oxy)methyl)-3-(1H-pyrazol-3-yl)piperidine-1-carboxylate], for which the EC50 came to 0.892 µM and the “% of reference agonist maximal effect” value stood at 99.1%.
In the case of `COC(=O)COC(=O)N1CCC[C@H](c2cc[nH]n2)[C@@H]1CO[C@H]1CC[C@@H](c2ccccc2)CC1` (relative stereo) [Example 98, 2-methoxy-2-oxoethyl (CIS)-2-((((CIS)-4-phenylcyclohexyl)oxy)methyl)-3-(1H-pyrazol-3-yl)piperidine-1-carboxylate], the EC50 came out at 1.02 µM and the “% of reference agonist maximal effect” value was 98.7%.
Turning to `CC(OC(=O)N1CCC[C@H](c2cc[nH]n2)[C@@H]1CO[C@H]1CC[C@@H](c2ccccc2)CC1)C(F)F` (relative stereo) [Example 99, 1,1-difluoropropan-2-yl (CIS)-2-((((CIS)-4-phenylcyclohexyl)oxy)methyl)-3-(1H-pyrazol-3-yl)piperidine-1-carboxylate], the EC50 turned out to be 1.82 µM and the “% of reference agonist maximal effect” value came to 88.9%.
Turning to `C#CCOC(=O)N1CCC[C@H](c2cc[nH]n2)[C@@H]1CO[C@H]1CC[C@@H](c2ccccc2)CC1` (relative stereo) [Example 100, prop-2-yn-1-yl (CIS)-2-((((CIS)-4-phenylcyclohexyl)oxy)methyl)-3-(1H-pyrazol-3-yl)piperidine-1-carboxylate], the concentration giving a half-maximal response (EC50) was 2.36 µM and the “% of reference agonist maximal effect” value was found to be 61.8%.
Regarding `O=C(Oc1cccnc1)N1CCC[C@H](c2cc[nH]n2)[C@@H]1CO[C@H]1CC[C@@H](c2ccccc2)CC1` (relative stereo) [Example 101, pyridin-3-yl (CIS)-2-((((CIS)-4-phenylcyclohexyl)oxy)methyl)-3-(1H-pyrazol-3-yl)piperidine-1-carboxylate], the EC50 is 2.51 µM and the “% of reference agonist maximal effect” value was 77.7%.
The corresponding values for `O=C(OCC(F)(F)F)N1CCC[C@H](c2cc[nH]n2)[C@@H]1CO[C@H]1CC[C@@H](c2ccccc2)CC1` (relative stereo) [Example 102, 2,2,2-trifluoroethyl (CIS)-2-((((CIS)-4-phenylcyclohexyl)oxy)methyl)-3-(1H-pyrazol-3-yl)piperidine-1-carboxylate] are 2.93 µM and 40.7%.
The corresponding values for `CC#CCOC(=O)N1CCC[C@H](c2cc[nH]n2)[C@@H]1CO[C@H]1CC[C@@H](c2ccccc2)CC1` (relative stereo) [Example 103, but-2-yn-1-yl (CIS)-2-((((CIS)-4-phenylcyclohexyl)oxy)methyl)-3-(1H-pyrazol-3-yl)piperidine-1-carboxylate] are 3.61 µM and 73.6%.
On the same counts, the results for `O=C(OCC1CCC1)N1CCC[C@H](c2cc[nH]n2)[C@@H]1CO[C@H]1CC[C@@H](c2ccccc2)CC1` (relative stereo) [Example 104, cyclobutylmethyl (CIS)-2-((((CIS)-4-phenylcyclohexyl)oxy)methyl)-3-(1H-pyrazol-3-yl)piperidine-1-carboxylate] are 3.85 µM and 65.1%.
With `CC(C)COC(=O)N1CCC[C@H](c2cc[nH]n2)[C@@H]1CO[C@H]1CC[C@@H](c2ccccc2)CC1` (relative stereo) [Example 105, isobutyl (CIS)-2-((((CIS)-4-phenylcyclohexyl)oxy)methyl)-3-(1H-pyrazol-3-yl)piperidine-1-carboxylate], the EC50 was found to be 3.94 µM and the “% of reference agonist maximal effect” value worked out at 64.9%.
Take `CC#CCCOC(=O)N1CCC[C@H](c2cc[nH]n2)[C@@H]1CO[C@H]1CC[C@@H](c2ccccc2)CC1` (relative stereo) [Example 106, pent-3-yn-1-yl (CIS)-2-((((CIS)-4-phenylcyclohexyl)oxy)methyl)-3-(1H-pyrazol-3-yl)piperidine-1-carboxylate]: the concentration for a half-maximal effect (EC50) is 5.08 µM and the “% of reference agonist maximal effect” value is reported as 71.4%.
On to `Cc1cnc(COC(=O)N2CCC[C@H](c3cc[nH]n3)[C@@H]2CO[C@H]2CC[C@@H](c3ccccc3)CC2)o1` (relative stereo) [Example 109, (5-methyloxazol-2-yl)methyl (CIS)-2-((((CIS)-4-phenylcyclohexyl)oxy)methyl)-3-(1H-pyrazol-3-yl)piperidine-1-carboxylate], for which the EC50 came to 5.56 µM and the “% of reference agonist maximal effect” value is 78.6%.
Regarding `CC(F)(F)COC(=O)N1CCC[C@H](c2cc[nH]n2)[C@@H]1CO[C@H]1CC[C@@H](c2ccccc2)CC1` (relative stereo) [Example 110, 2,2-difluoropropyl (CIS)-2-((((CIS)-4-phenylcyclohexyl)oxy)methyl)-3-(1H-pyrazol-3-yl)piperidine-1-carboxylate], the EC50 was 6.23 µM and the “% of reference agonist maximal effect” value is reported as 58.5%.
`O=C(OCCF)N1CCC[C@H](c2cc[nH]n2)[C@@H]1CO[C@H]1CC[C@@H](c2ccccc2)CC1` (relative stereo) [Example 111, 2-fluoroethyl (CIS)-2-((((CIS)-4-phenylcyclohexyl)oxy)methyl)-3-(1H-pyrazol-3-yl)piperidine-1-carboxylate]: the EC50 is 6.29 µM and the “% of reference agonist maximal effect” value is recorded as 78.4%.
On to `O=C(OC1CCC1)N1CCC[C@H](c2cc[nH]n2)[C@@H]1CO[C@H]1CC[C@@H](c2ccccc2)CC1` (relative stereo) [Example 112, cyclobutyl (CIS)-2-((((CIS)-4-phenylcyclohexyl)oxy)methyl)-3-(1H-pyrazol-3-yl)piperidine-1-carboxylate], for which the half-maximal effective concentration (EC50) was found to be 6.36 µM and the “% of reference agonist maximal effect” value is on record as 61.6%.
For the molecule `O=C(OC(CF)CF)N1CCC[C@H](c2cc[nH]n2)[C@@H]1CO[C@H]1CC[C@@H](c2ccccc2)CC1` (relative stereo) [Example 113, 1,3-difluoropropan-2-yl (CIS)-2-((((CIS)-4-phenylcyclohexyl)oxy)methyl)-3-(1H-pyrazol-3-yl)piperidine-1-carboxylate], the EC50 worked out at 6.67 µM and the “% of reference agonist maximal effect” value is listed as 57.4%.
Regarding `COC(=O)CCOC(=O)N1CCC[C@H](c2cc[nH]n2)[C@@H]1CO[C@H]1CC[C@@H](c2ccccc2)CC1` (relative stereo) [Example 114, 3-methoxy-3-oxopropyl (CIS)-2-((((CIS)-4-phenylcyclohexyl)oxy)methyl)-3-(1H-pyrazol-3-yl)piperidine-1-carboxylate], the concentration giving a half-maximal response (EC50) came to 6.78 µM and the “% of reference agonist maximal effect” value worked out at 80.5%.
`O=C(OC1CCCC1)N1CCC[C@H](c2cc[nH]n2)[C@@H]1CO[C@H]1CC[C@@H](c2ccccc2)CC1` (relative stereo) [Example 117, cyclopentyl (CIS)-2-((((CIS)-4-phenylcyclohexyl)oxy)methyl)-3-(1H-pyrazol-3-yl)piperidine-1-carboxylate]: the concentration for a half-maximal effect (EC50) came to 8 µM and the “% of reference agonist maximal effect” value is on record as 47.3%.
With `COCCCOC(=O)N1CCC[C@H](c2cc[nH]n2)[C@@H]1CO[C@H]1CC[C@@H](c2ccccc2)CC1` (relative stereo) [Example 118, 3-methoxypropyl (CIS)-2-((((CIS)-4-phenylcyclohexyl)oxy)methyl)-3-(1H-pyrazol-3-yl)piperidine-1-carboxylate], the EC50 came out at 8.96 µM and the “% of reference agonist maximal effect” value was determined as 47.9%.
As to `C=CCNC(=O)N1CCC[C@H](c2cc[nH]n2)[C@@H]1CO[C@H]1CC[C@@H](C(C)C)CC1` (relative stereo) [Example 120, (CIS)-N-allyl-2-((((CIS)-4-isopropylcyclohexyl)oxy)methyl)-3-(1H-pyrazol-3-yl)piperidine-1-carboxamide], the concentration for a half-maximal effect (EC50) is 1.14 µM and the “% of reference agonist maximal effect” value stood at 97.8%.
Turning to `CC(C)NC(=O)N1CCC[C@H](c2cc[nH]n2)[C@@H]1CO[C@H]1CC[C@@H](C(C)C)CC1` (relative stereo) [Example 121, (CIS)-N-isopropyl-2-((((CIS)-4-isopropylcyclohexyl)oxy)methyl)-3-(1H-pyrazol-3-yl)piperidine-1-carboxamide], the EC50 is 1.54 µM and the “% of reference agonist maximal effect” value turned out to be 96.1%.
